Measurements taken from patent US20060134197A1, “Method of reducing unpleasant taste and/or unpleasant odor” (priority 2002, published 2006).

Legend:
[1] = Inhibiting the production of hydrogen sulfide from heated minced mackerel; conditions: minced mackerel with 5% saccharide solution, headspace gas
Procedure: Five grams of minced mackerel, prepared by mincing commercialized mackerel without head part, internal organs and bone with a mincer to homogeneity, was placed in a 20-ml vial, and admixed with 5 ml of an aqueous solution containing on a dry solid basis 5% of “TREHA®”, a food grade hydrous α,α-trehalose commercialized by Hayashibara Biochemical laboratories, Inc., Okayama, Japan (purity 99.0% or more), sucrose (a commercialized granulated sugar), or a syrupy saccharide mixture containing saccharide derivatives of α,α-trehalose prepared in Example 1. The resulting vials were sealed with a butyl gum cap to prepare test samples. As a control, a vial containing 5 g of the minced mackerel and 5 ml of deionized water was sealed with a butyl gum cap for a control sample. […]
Similarly as in Experiment 4, the content of hydrogen sulfide was measured using 10 ml of a headspace gas by “GASTECH No. 4 LT”, a hydrogen sulfide detector commercialized by GL Science Corporation, under an aspiration time of one minute.
(§1) The values of the production of amines, hydrogen sulfide and aldehydes of each test sample were compared with the value of control defined as 100 to calculate the relative values thereof. And then, the relative rates of inhibiting the production of amines, hydrogen sulfide and aldehydes were respectively calculated by 100 minus each of the relative values.

[2] = Inhibiting the production of lower aldehydes and 2,3-butandion from heated cacao powder; conditions: 1 g cacao powder in 4 ml of 2.5% saccharide solution; microwave, then 100° C. five minutes
Excerpt: “Stuffy smell”, meaning a kind of foreign smell generated from cocoa, chocolate, and compositions thereof during their processes, is known to deteriorate their flavor. 2,3-Butandion and lower aldehydes are known as a causative substance of foreign smell. On the other hand, […], classified in lower aldehydes, is known as one of the aromatic ingredients of chocolates. To confirm the effect of saccharide derivatives of α,α-trehalose on inhibiting the production of such compounds, the following experiment was carried out. Four milliliters of 2.5%, on a dry solid basis, saccharide solution containing either of sucrose, “TREHA®” (an α,α-trehalose commercialized by Hayashibara Biochemical Laboratories, Inc., Okayama, Japan), a commercialized enzyme-treated starch syrup and a syrupy saccharide mixture containing saccharide derivatives of α,α-trehalose prepared in Example 1 (on a dry solid basis about 53% of saccharide derivatives of α,α-trehalose) was placed in a 20-ml vial and admixed with 1 g of cacao powder. The resulting vial was covered with a plastic warp and heated by a microwave oven (500 W) for five seconds. As a control, 4 ml of distilled water and 1 g of cacao powder were placed in the vial and treated similarly as in the saccharide solutions. These vials were sealed with a butyl gum cap over the plastic wrap and heated at 100° C. in a heat block for five minutes. Two milliliters of the resulting headspace gas was subjected to gas chromatography to measure the contents of lower aldehydes and 2,3-butandion according to the method in Experiment 5-4. The amount of total aldehydes was calculated by totalizing the measured amounts of three kinds of aldehydes and other aldehydes listed in Table 8.
The resulting value of the production of aldehydes or 2,3-butandion of each of the test samples was compared with the value of control defined as 100 to calculate the relative value of the production of them. And then, the relative rate of inhibiting the production of them was calculated by 100 minus the relative value.

[3] = Panel test of lowering iron taste and/or smell of aqueous bivalent iron ion solution; set-up: key to Effect on lowering iron taste and/or smell: “Not effective (symbol “−”)” meaning of that the test aqueous solution showed no difference in iron taste and/or smell from that the control aqueous solution; “Slightly effective (symbol “+”)”, the test aqueous solution showes weaker iron taste and/or smell than the control aqueous solution but the deference was not significant; “Effective (symbol “++”)”, the test aqueous solution showed a slight iron taste and/or smell but it was significantly weaker than that of the control aqueous solution; “Strongly effective (symbol “+++”)”, the test aqueous solution showed almost no iron taste and/or smell; conditions: for Effect on lowering iron taste and/or smell: 5 mg bivalent iron per 100 ml, 12 panels; for Concentration effective on lowering unpleasant taste and/or smell of aqueous iron ion solution: to the total weight of the aqueous solution, dry solid basis
Procedure: To confirm the effect of various saccharides on inhibiting taste and/or smell of bivalent iron ion, the following experiment was carried out. An aqueous solution containing bivalent iron ion was prepared by dissolving 0.05556 part by weight of ammonium ferric citrate (iron content of about 18%), and 0.1 part by weight of ascorbic acid in 100 parts by weight of deionized water. Test aqueous solutions containing 5 mg of bivalent iron per 100 ml of water and 0.5, 1.0, 1.5, 2.0 or 5.0% of saccharide selected from sucrose, maltose (hydrous crystalline maltose commercialized by Hayashibara Biochemical Laboratories, Inc., Okayama, Japan, purify 99.0% or more), α,α-trehalose (hydrous crystalline α,α-trehalose commercialized by Hayashibara Biochemical Laboratories, Inc., Okayama, Japan, purity 99.0% or more), α-glucosyl α,α-trehalose (hydrous crystalline α-glucosyl α,α-trehalose prepared in Experiment B-1 of Japanese Patent Publication (Kokai) No. 291,986/1995, purity 99.0% or more), and […] (powdery α-maltosyl α,α-trehalose prepared in Example 5 described following, purity 98.1%) were prepared by admixing the above aqueous solution containing bivalent iron with an equal volume of a pre-prepared aqueous solution containing any one of the above saccharides at a concentration of 1.0, 2.0, 3.0, 4.0 or 10.0%, on a dry solid basis. As a control, an aqueous solution was prepared by admixing the aqueous solution containing bivalent iron ion with an equal volume of warter instead of the aqueous saccharide solution.
The effect on lowering iron taste and/or smell, namely unpleasant taste and/or smell of iron ion existing in a test aqueous solution at a concentration of 5 mg per 100 ml was judged by a panel test using 12 panels. […] In the judgement for each test aqueous solution, ten or more of 12 panels answered the same judgement.

[4] = Inhibiting the production of amines from heated minced mackerel (headspace GC); conditions: minced mackerel with 5% saccharide solution; for Relative rate of inhibiting the production of dimethylamine / Relative rate of inhibiting the production of trimethylamine: headspace gas; for Relative rate of inhibiting the production of total amine: trimethylamine plus dimethylamine
Procedure: Five grams of minced mackerel, prepared by mincing commercialized mackerel without head part, internal organs and bone with a mincer to homogeneity, was placed in a 20-ml vial, and admixed with 5 ml of an aqueous solution containing on a dry solid basis 5% of “TREHA®”, a food grade hydrous α,α-trehalose commercialized by Hayashibara Biochemical laboratories, Inc., Okayama, Japan (purity 99.0% or more), sucrose (a commercialized granulated sugar), or a syrupy saccharide mixture containing saccharide derivatives of α,α-trehalose prepared in Example 1. The resulting vials were sealed with a butyl gum cap to prepare test samples. As a control, a vial containing 5 g of the minced mackerel and 5 ml of deionized water was sealed with a butyl gum cap for a control sample. These samples were heated in boiled water for 15 minutes, cooled in running water, and heated at 80° C. for five minutes. The resulting headspace gas was taken from each of the vials and allowed to measure the contents of amines, hydrogen sulfide and aldehydes.
Measurement of the content of amines was carried out by subjecting 2 ml of the headspace gas to analysis by GC-14B gas chromatography, a hydrogen flame ionizing detector commercialized by Shimazu Co., Ltd., Kyoto, Japan, with flowing helium gas as a carrier gas at a flow rate of 1 ml/minute, and using DB-5 capillary column, 30 m in length and 0.25 mm in internal diameter (df=0.25 μm, sprit rate 1/30), commercialized by J & W Company, with an increasing column temperature from 40° C. to 250° C. at a rate of 5° C./minute. The amount of total amine was calculated by totalizing the amount of trimethylamine and dimethylamine.
as §1

Row | SMILES | Relative rate of inhibiting the production of hydrogen sulfide [1] | Relative rate of inhibiting the production of 2,3-butandion [2] | Relative rate of inhibiting the production of acetaldehyde [2] | Relative rate of inhibiting the production of isobutanal [2] | Relative rate of inhibiting the production of other aldehydes [2] | Relative rate of inhibiting the production of propanal [2] | Relative rate of inhibiting the production of total aldehydes [2] | Effect on lowering iron taste and/or smell ([3]; saccharide 0.5%) | Effect on lowering iron taste and/or smell ([3]; saccharide 1.0%) | Effect on lowering iron taste and/or smell ([3]; saccharide 1.5%) | Effect on lowering iron taste and/or smell ([3]; saccharide 2.0%) | Effect on lowering iron taste and/or smell ([3]; saccharide 5.0%) | Concentration effective on lowering unpleasant taste and/or smell of aqueous iron ion solution [3] | Relative rate of inhibiting the production of dimethylamine [4] | Relative rate of inhibiting the production of trimethylamine [4] | Relative rate of inhibiting the production of total amine [4]
1 | OC[C@H]1O[C@H](O[C@H]2O[C@H](CO)[C@@H](O)[C@H](O)[C@H]2O)[C@H](O)[C@@H](O)[C@@H]1O [α,α-Trehalose, α,α-trehalose] | 26 | 100 | 50 | 58 | 0 | 47 | 53 | − | − | + | + | ++ | ≥ 1.5% | 44 | 58 | 52
2 | OC[C@H]1O[C@@](CO)(O[C@H]2O[C@H](CO)[C@@H](O)[C@H](O)[C@H]2O)[C@@H](O)[C@@H]1O [Sucrose, sucrose] | 12 | 95 | 44 | 52 | 0 | 43 | 48 | − | − | − | − | − | not effective | −34 | 12 | −8
